Test results as given in PubChem BioAssay (NCI).
Where “and” joins values, the source holds several entries; their conditions need not be identical. Equal entries are not always repeated.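 Where inhibition never reached the appropriate level, the endpoint shown equals the highest concentration tested. Otherwise, values were interpolated linearly from a five-concentration, 48-hour dose response in 96-well plates. GI50: concentration for 50% inhibition of growth. TGI denotes the concentration required for complete inhibition of growth.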

Assays:
Assay in all cases: NCI anticancer screen, dose series, 48 h
SR leukemia = tested on: SR leukemia
K-562 leukemia = tested on: K-562 leukemia
786-0 renal = tested on: 786-0 renal
PC-3 prostate = tested on: PC-3 prostate
RPMI-8226 leukemia = tested on: RPMI-8226 leukemia
MDA-N = tested on: MDA-N
LOX IMVI melanoma = tested on: LOX IMVI melanoma
A498 renal = tested on: A498 renal
XF 498 CNS = tested on: XF 498 CNS
SNB-75 CNS = tested on: SNB-75 CNS
M19-MEL melanoma = tested on: M19-MEL melanoma

SMILES	TGI (SR leukemia) [µM]	TGI (K-562 leukemia)	TGI (786-0 renal) [µM]	TGI (PC-3 prostate) [µM]	TGI (RPMI-8226 leukemia)	TGI (MDA-N) [µM]	TGI (LOX IMVI melanoma)	TGI (A498 renal)	GI50 (XF 498 CNS) [µM]	TGI (XF 498 CNS)	GI50 (K-562 leukemia) [µM]	GI50 (SNB-75 CNS) [µM]	TGI (SNB-75 CNS)	GI50 (RPMI-8226 leukemia) [µM]	GI50 (M19-MEL melanoma) [µM]	TGI (M19-MEL melanoma)	GI50 (LOX IMVI melanoma) [µM]	GI50 (A498 renal) [µM]	GI50 (PC-3 prostate) [µM]	GI50 (SR leukemia) [µM]
N#Cc1c(-c2ccc([N+](=O)[O-])cc2)c2c([nH]c1=O)-c1ccccc1CCC2	> 100	> 100 µM	> 100	> 100	> 100 µM	> 100	> 100 µM	> 100 µM	–	–	–	–	–	–	–	–	–	–	–	–
O=C1OC(c2ccc(O)cc2)(c2ccc(O)cc2)c2ccc(Cl)c3cccc1c23 (tested in a mixture with another compound)	28.4	> 75 µM	–	20.6	28.4 µM	25.7	20.8 µM	> 75 µM	–	–	–	–	–	–	–	–	–	–	–	–
CC[C@@]1(O)CC(OC2CC(N3CCOCC3)C(O)C(C)O2)c2c(O)c3c(c(O)c2[C@H]1O)C(=O)c1cccc(O)c1C3=O (stereo not given in full)	25	6.69 µM and 4.03 µM	2.18	0.811	2.15 µM and 5.08 µM	1.04	0.886 µM and 0.437 µM	0.634 µM and 0.229 µM	0.0341	0.278 µM and 0.362 µM	0.0426	0.0452	0.93 µM and 0.399 µM	0.0561	0.0716	0.981 µM and 2.14 µM	0.0207	0.07	–	–
Cc1csc2nc(-c3cccc([N+](=O)[O-])c3)c(/C=N/N=C(N)N)n12	–	–	2.91	3.08	–	3.04	–	2.92 µM	–	–	–	–	3.16 µM	–	–	–	–	–	–	–
Cc1cc(C)c2c(=O)n(CC(O)CN(Cc3ccccc3)CC(O)Cn3sc4nc(C)cc(C)c4c3=O)sc2n1 (stereo not given)	> 100	> 100 µM	27.7	30.4	> 100 µM	32.8	33.9 µM	–	–	–	–	–	28.9 µM	–	–	–	–	–	–	–
C[n+]1c2ccccc2c(N=[N+]=[N-])c2ccccc21	> 10	> 10 µM	> 10	> 10	> 10 µM	–	7.63 µM	> 10 µM	–	–	–	–	–	–	–	–	–	–	–	–
N#CC1(CCCI)CCCC1	> 100	> 100 µM	–	–	–	–	22.9 µM	> 100 µM	–	47.3 µM	–	–	20.2 µM	–	–	45 µM	–	–	–	–
O=C(/C=C/c1ccc([N+](=O)[O-])cc1)N1CCN(CCOC(c2ccc(F)cc2)c2ccc(F)cc2)CC1	40.5	> 100 µM	> 100	> 100	36.9 µM	> 100	> 100 µM	> 100 µM	–	–	–	–	> 100 µM	–	–	–	–	–	–	–
Cc1[nH]c(C(=O)Nc2ccc(C(=O)NCCN)cc2OC(C)C)c(Cl)c1Cl	–	–	–	3.53	4.49 µM	–	–	–	–	–	–	1.55	3.07 µM	1.92	–	–	–	–	1.82	–
c1ccc(CSC(SCc2ccccc2)c2cccc3ccccc23)cc1	> 10	> 10 µM	–	> 10	> 10 µM	> 10	–	> 10 µM	–	–	–	–	> 10 µM	–	–	–	–	–	–	–
COc1ccccc1C#C/C=C\C#Cc1ccccc1C#N	29.9	> 100 µM	81.8	> 100	–	–	–	–	–	–	–	–	> 100 µM	–	–	–	–	–	–	–
CC(C)CCN(CCC(C)C)CC(=O)Nc1ccc(S(=O)(=O)c2ccc(NC(=O)CN(CCC(C)C)CCC(C)C)cc2)cc1	5.19	–	–	5.89	–	–	–	38.8 µM	–	–	–	13.3	42 µM	–	–	–	–	16.5	2.01	1.72
Nc1ccc(Oc2ccc(C34CC5CC(C3)CC(c3ccc(Oc6ccc(N)cc6C(F)(F)F)cc3)(C5)C4)cc2)c(C(F)(F)F)c1	–	> 100 µM	> 100	29.2	–	> 100	31.8 µM	35.2 µM	–	–	–	–	–	–	–	–	–	–	–	–
CCOC(=O)C1=C(C(=O)OCC)SC2(S1)C(C(=O)OCC)=C(C(=O)OCC)Sc1c2ssc1=O	> 100	3.06 µM	2.13	2.96	4.56 µM	4.36	1.42 µM	12.8 µM	–	–	–	–	3.94 µM	–	–	–	–	–	–	–
O=C(O)c1cc2ccccc2c(N=Nc2ccc(S(=O)(=O)Nc3ccccn3)cc2)c1O	> 100	> 100 µM	> 100	> 100	> 100 µM	> 100	–	–	–	–	–	–	> 100 µM	–	–	–	–	–	–	–
Cc1c(-c2ccccc2)c(C#N)c2nnn(-c3ccc(Cl)cc3)c(=O)n12	> 100	> 100 µM	47.7	50.9	> 100 µM	> 100	> 100 µM	> 100 µM	–	–	–	–	> 100 µM	–	–	–	–	–	–	–
NC1CCN(c2nc3ccccc3c3c2CCCC3)CC1	–	6.58 µM	13.3	20.4	11.1 µM	9.6	14.2 µM	22.7 µM	–	–	–	–	22.1 µM	–	–	–	–	–	–	–
COC(=O)c1c(O)ccc2c1c1c(n2CCc2ccc(OC)c(OC)c2)C(=O)c2ccccc2C1=O	51.3	> 100 µM	32	35.9	28 µM	25.5	–	32.9 µM	–	–	–	–	–	–	–	–	–	–	–	–
O=C1N[C@H]2C(=O)c3c(Br)sc(Br)c3[C@H]2O1	6.27	> 21.7 µM	24.1	16.4	> 45 µM	20.1	11.4 µM	33.2 µM	–	–	–	–	31.4 µM	–	–	–	–	–	–	–
Cc1[nH]c2ncn3[nH]c(=S)nc3c2c1Cc1ccccc1	–	–	> 100	> 100	–	–	–	> 100 µM	–	–	–	–	> 100 µM	–	–	–	–	–	–	–
O=C1Nc2cccc(Cl)c2/C1=C\c1cccnc1	–	36.5 µM	20.9	> 100	–	–	> 100 µM	37.1 µM	–	–	–	–	40.2 µM	–	–	–	–	–	–	–
CC1(C)CN(CC(=O)O)CC(Cc2ccc(OCC(=O)O)cc2)N(CC(=O)O)CC(C)(C)SS1 (stereo not given)	–	> 100 µM	> 100	> 100	> 100 µM	> 100	> 100 µM	> 100 µM	–	–	–	–	> 100 µM	–	–	–	–	–	–	–
COc1cc(/C=N/NC(=O)c2c(Cl)c(Cl)c(Cl)c(Cl)c2-c2nc3ccc(C(=O)c4ccccc4)cc3[nH]2)ccc1O	54.4	> 100 µM	> 100	> 100	89.5 µM	52	> 100 µM	–	–	–	–	–	> 100 µM	–	–	–	–	–	–	–
O=C(CSCC(=O)N/N=C\c1ccc(F)cc1F)N/N=C\c1ccc(F)cc1F	> 100	–	> 100	–	> 100 µM	–	> 100 µM	> 100 µM	–	–	–	–	> 100 µM	–	–	–	–	–	–	–
CC(C)CNC1=NCC(C)S1 (stereo not given)	> 100	> 100 µM	–	> 100	> 100 µM	> 100	> 100 µM	> 100 µM	–	–	–	–	> 100 µM	–	–	–	–	–	–	–
Cc1ncc(C(=O)Nc2ccc(CN3CCN(C)CC3)c(C(F)(F)F)c2)cc1C#Cc1cnc(N)c2ccc(C#N)cc12	> 100	–	–	–	–	–	–	–	–	–	–	–	–	–	–	–	–	–	–	0.0607
c1ccc(/C(=N\Nc2nc3ccccc3[nH]2)c2ccccn2)cc1	> 31.8	> 100 µM	2.57	37.7	1.07 µM	18.4	7.44 µM	5.14 µM	–	–	–	–	3.85 µM	–	–	–	–	–	–	–
C[C@]12CC[C@H]3[C@@H](CC=C4C[C@@H](O)CC[C@@]43C)[C@@H]1C/C(=C\c1ccncc1)[C@@H]2O	57.3	> 100 µM	60.5	43	48.9 µM	54.4	61 µM	28.3 µM	–	–	–	–	62.8 µM	–	–	–	–	–	–	–
